Measured values as given in a melting point compilation (Tetko et al.; mined from patent text by program, amines drawn as free bases though some values may be those of a salt).

Compound | melting point [°C]
CCCCCCCN(CCCCCSc1nc(-c2ccc(O)cc2)c(-c2ccc(O)cc2)[nH]1)C(=O)Nc1ccc(F)cc1F | 110 to 112
COc1cc2cc(Br)c(C)cc2c(C(C)C)c1OC | 62 to 63
O=c1ncc(Br)cn1CCC(O)Cl (stereo not drawn) | 162 to 164
O=C1NCCCCC1Br (stereo not drawn) | 109 to 111
C#CC(Cn1cnnn1)n1nnc2cc3c(=O)n(C4CC4)nnc3cc2c1=O (stereo not drawn) | > 195
C#CCN1CCN(CC(=O)N2c3ccccc3C(=O)Nc3cccnc32)CC1 | 249 to 250
COC(=O)C1=C(NC(=O)NC2CCCCC2)CSC1 | 154 to 155
ClCSc1nc(Cl)c(Cl)nc1Cl | 68 to 70
Cc1cc(=O)n(-c2cc(C(=O)OC(C)C)c(C#N)cc2F)c(=O)n1C | 188 to 200
CC(=O)CC(=O)C=Cc1ccc2cc[nH]c2c1 | 138 to 142
COc1ccc(COc2cccc(OC)c2C(=O)C=C(SC)SC)cc1 | 93 to 94
O=C1N=C(N2CCOCC2)SC1=Cc1cccc(-c2cc(F)c(O)c(C34CC5CC(CC(C5)C3)C4)c2)c1 | 293 to 295
Nc1cc(-c2ccnc3c(C(=O)c4cccs4)cnn23)ccc1F | 241 to 242
Cc1nc(Cl)c([N+](=O)[O-])c(N(c2ccccc2)c2ccccc2)n1 | 128 to 130
CCOC(=O)c1cnc2[nH]ncc2c1OCC | 180
Sc1nc2cc(N3CCNCC3)ccc2[nH]1 | 260 to 261
N#CCCCCn1nc(C(N)=O)c2ccccc21 | 182 to 185
N#Cc1ccc(C=CC(=O)c2ccc(O)c(CC(=O)O)c2)cc1 | 249
CN1CCN(c2nc3c(cc2F)c(=O)c(C(=O)O)cn3C2CSC2)CC1 | 270 to 280
COc1cc(/C=C/c2nc3ccccc3c(=O)o2)ccc1OC(C)=O | 185 to 186
CCCOC1CCC2C3CCC4=CC(=O)CCC4C3CCC12CC (stereo not drawn) | 83 to 84
CC(O)C(Oc1ccc(NC(=O)NC(=O)c2ccccc2Cl)cc1)c1ccccc1 (stereo not drawn) | 142 to 144
COc1cc2c(Nc3ccc(Cl)cc3F)ncnc2cc1OCCSC | 174 to 176
O=C(CC1CCCC(Cl)C1)Nc1ccccc1 (stereo not drawn) | 110 to 112
CCN(CC)CCOc1ccc(Nc2ncc3c(n2)N(C)C(=O)N(c2ccccc2Cl)C3)cc1 | 150 to 151
CC(C)(O)c1ccc(-c2ccc3nnn(Cc4ccc5ncccc5c4)c3n2)cc1F | 85 to 89

Compound | melting point [°C]
N#Cc1c(C#N)c(Oc2ccc3ccccc3c2)c(Oc2ccc3ccccc3c2)c(Oc2ccc3ccccc3c2)c1Oc1ccc2ccccc2c1 | 188 to 190
Fc1ccc2c(C3CCN(CCN4CCOCC4)CC3)noc2c1 | 131 to 132
CCCCC(=O)Nc1cccc(NC(=O)C=C(C)OC)c1 | 115
CSc1ncc2cc(Oc3ccc(F)cc3F)c(NS(C)(=O)=O)nc2n1 | 199 to 204
NC(=O)c1c(Cl)cn2c1CN(S(=O)(=O)c1ccc(C(F)(F)F)cc1)CC2 | 159 to 160
O=C(O)COc1cccc2c1CCc1sc(S(=O)(=O)CCCC(c3ccccc3)c3ccccc3)nc1-2 | 180 to 181
CCCCCCC(C(C)O)n1c(C)nc(C(N)=O)c1N (stereo not drawn) | 142 to 144
N#CCCN1CCN(Cc2ccc3c(c2)-c2[nH]nc(-c4ccsc4)c2C3)CC1 | 156 to 157
CCCN1CC=C(c2c(C)[nH]c3cc(OC)ccc23)CC1 | 90 to 95
C=CCNC(=O)Nc1nn(Cc2ccccc2)cc1C(=O)OCC | 77 to 78
O=C(CCCCCCC(=O)N1CCN(CC(c2ccccc2)c2ccccc2)CC1)NO | 117 to 118
CSc1c2ccccc2c(C=O)c2ccccc12 | 98.5 to 99
O=C1N[C@H](Cc2cccc(OC(F)(F)C(F)F)c2)[C@H](c2ccc(Oc3ccccc3)cc2)O1 (racemic) | 90 to 91
CN(c1cccc2cc(C3=NCC(CC(=O)N4CCS(=O)CC4)S3)[nH]c12)S(=O)(=O)c1cccs1 (stereo not drawn) | 149
COc1ccc(S(=O)(=O)C(C=CC(C)C)(CC=C(C)C)C(=O)NO)cc1 (stereo not drawn) | 93 to 96
CCCc1c(O)ccc2oc(Cc3ccc(O)cc3)c(C)c12 | 138 to 142
CCOC(=O)c1cnc2c(NC(=O)c3c(Cl)cccc3Cl)cccc2c1CSc1ccncc1 | 179 to 181
CSc1ccc(C=O)cc1Cl | 58 to 59
COc1ccc(CN2C(=O)C(c3cc4c(C)noc4cc3O)c3ccccc32)cc1 (stereo not drawn) | 195 to 197
CC(=O)SCCC(=O)NC(Cc1cn(C=O)c2ccccc12)C(=O)O (racemic) | 130 to 133
CSc1ccc(C2OC(=O)NC2O)cc1 (stereo not drawn) | 130 to 131
CCOC(=O)N1CCCC(NC(=O)c2ccc(Cl)c(Cl)c2)C12CCCCC2 (stereo not drawn) | 74 to 77
FC(F)(F)c1cccc(-c2ccnc3nccn23)c1 | 160 to 163
COc1cccc(-c2cc(Cl)cc3c2OC(CN)C3)c1OC (stereo not drawn) | 120 to 122
CS(=O)(=O)O[C@@H](CO)[C@H](Cc1ccccc1)NC(=O)OCc1ccccc1 | 121 to 122
COc1ccc(C(=O)NCCc2cccs2)cc1 | 109 to 111

Compound | melting point [°C]
O=C(O)C1CCCCN1CC=CP(=O)(O)O (stereo not drawn) | 163 to 165
CNC(=O)N(O)C(C)c1ccc(Cl)c(C)c1 (stereo not drawn) | 99 to 102
Cc1cccc2nc3c(c(C)nn3-c3ccccn3)c(Cl)c12 | 167 to 169
COc1cc2ccsc2c(Cl)c1Cl | 103 to 104
CC(C)n1nc(-c2ccc(OCC(N)=O)nc2-c2ccccc2)ccc1=O | 137 to 138
CN1CCN(c2ccc(C(=O)NCCCCCCCCCCCCO[N+](=O)[O-])cn2)CC1 | 74 to 76
O=C(O)C1Cc2cc3c(=O)c4ccccc4oc3c(Cl)c2O1 (stereo not drawn) | 290 to 293
FCc1cccc(C#CCCn2ncc(-c3ccc(F)cc3)n2)n1 | 84 to 86
CCC(CC)CCOCCCCCCNCC(O)c1ccc(O)c(NS(C)(=O)=O)c1 (stereo not drawn) | 69 to 71
C=Cc1c(C(=O)O)cccc1[N+](=O)[O-] | 166 to 167
COc1ccc(C(=O)Nc2ccc3c(c2)CCCC3=O)cc1 | 163 to 166
CCCn1nc2c(N)nc3ccccc3c2c1CCN(C(N)=O)c1ccc(F)c(F)c1 | 211 to 212
CNC(=O)N(C)c1nc(CC(=O)Nc2nnc(C(C)(C)C)s2)cs1 | 175 to 177
O=C1CNCC2c3ccccc3CCN12 (stereo not drawn) | 119 to 120
COC(=O)C1Cc2c(cccc2-c2ccccc2)CN1 (stereo not drawn) | 149 to 150
O=C(Cc1ccc(Cl)c(Cl)c1)NCc1ccc2c(c1)CN(C1CCC(=O)NC1=O)C2=O (stereo not drawn) | 191 to 193
CCOC(=O)c1c(C(F)(F)F)nc(C(F)F)c(C(=O)OC)c1NCC(F)(F)F | 64 to 66
CCCCOc1ncc(I)cc1C(N)=O | 163 to 166
COc1ccc(NN=C2C(=O)Nc3ccc(C4=NNC(=O)SC4C)cc32)cc1 (stereo not drawn) | 273
CCOC(=O)C(C)(C)Oc1ccc(OCCn2c(=O)sc3cc(C(=O)c4cccc(Cl)c4)ccc32)cc1 | 125 to 126
O=C(NCc1ccccn1)Nc1cc(N2CC(Cc3ccccc3)OC2=O)ccn1 (stereo not drawn) | 191 to 193
CCCCC(CC)Cn1c2cc(Br)ccc2c2ccc(Br)cc21 (stereo not drawn) | 95 to 97
CCCN(CCC)S(=O)(=O)c1cccc(C(=O)Nc2cccc([N+](=O)[O-])c2)c1 | 126 to 128
O=C(NC(CO)c1ccc(-c2ccc(SC(F)F)cc2)cc1)c1c(F)cccc1F (stereo not drawn) | 156 to 157
COC(=O)CC1=C(C)Cc2cc(F)c(F)cc21 | 86 to 90
Cc1ccc(S(=O)(=O)NC(=O)C2C(=O)CC(C)(C)CC2=O)cc1 | 94 to 108

Compound | melting point [°C]
c1cc(N2CCNCC2)c2nccnc2c1 | 106 to 108
CC(C)c1ccccc1Sc1c(O)cc(-c2cc(Cl)cc(Cl)c2)oc1=O | 168 to 169
COC(=O)/C=C/C(=O)OCC(=O)N1CCOCC1 | 124 to 126
CC1Oc2ccccc2C(O)C1n1ccnc1 (stereo not drawn) | 160 to 175
CCOC(=O)Nc1cc(C)cc(Nc2c3cccc(C)c3nc3c(C(=O)NCCN(C)C)cccc23)c1 | 263 to 264
COc1ccc(-c2nc(Sc3ccc(C(C)(C)C)cc3)[nH]c2-c2ccc(OC)cc2)cc1 | 172 to 174
CCOc1cccc(CSc2nc3cnccc3[nH]2)c1 | 158 to 161
O=C(CSc1ccccc1)c1ccccc1 | 51 to 52
CCCn1nc2c(N)nc3ncccc3c2c1CC1CCOCC1 | 252 to 255
COc1ccc(C(=O)NCCn2c(C)ccc2C)cc1OC | 82 to 84
CCOC(=O)C(C)Oc1ccc(Oc2nc3ccccc3cc2Cl)cc1 (stereo not drawn) | 86
CS(=O)(=O)c1ccc(Oc2ccc(Cl)c(Cl)c2)c(C#N)c1 | 162 to 163
CC(Oc1ccc(F)cc1F)(C(=O)Nc1nc(CC(=O)O)c(Cl)s1)c1ccc(S(C)(=O)=O)cc1 (stereo not drawn) | 109 to 111
CCOC(=O)c1c(C#N)c2c(c3[nH]c4ccccc4c13)CCC2 | 229 to 231
CC(C)(C)OC(=O)NCC(=O)N1CCC[C@H]1C(=O)O | 140 to 143
Cc1nc(-n2ccc(O)cc2=O)sc1C(=O)NCc1ccc(F)cc1 | 280 to 282
O=C(CF)Nc1ccccc1 | 77 to 78.5
C=CCc1cc(CNC)ccc1C#CC1(O)CN2CCC1CC2 (stereo not drawn) | 80
CC(=CC(=O)O)c1cccc([N+](=O)[O-])c1 | 147 to 149
O=c1[nH]c2ccccc2n1CCN1CCC(C(c2ccc(F)cc2)c2ccc(F)cc2)CC1 | 104 to 106
COc1ccc(-c2cc(C(=O)Nc3cccc(F)n3)c3ccccc3n2)cc1OC | 225 to 226
CCOC(=O)c1cc(=O)c2c(OCC(O)COc3ccccc3C)cccc2o1 (stereo not drawn) | 75 to 76
CN(C)c1ccncc1CCCOc1ccc(OCCCC(=O)O)cc1 | 106 to 108
c1ccc2c(c1)C[C@H]1CSC(=Nc3csc4ncccc34)N1C2 | 145 to 146
CCN1C(=O)C(C(=O)Nc2cccc(C(=O)Nc3ccccc3)c2)c2cc(C(=O)C3CCCC3)ccc21 (stereo not drawn) | 208 to 213
